Results reported in patent US20260193268A1, “TRICYCLIC PI3Ka INHIBITOR, PREPARATION METHOD THEREFOR, AND PHARMACEUTICAL USE THEREOF” (WIGEN BIOMEDICINE TECHNOLOGY (SHANGHAI) CO., LTD., priority 2022, published 2026).
Like-named read-outs stand apart in the source and are kept apart here.

Legend:
[1] = test system: HCC1954 cells (with PI3Kα H1047R mutation); test: In vitro inhibition of HCC1954 cell proliferation (CellTiter-Lumi); type: cell-based; conditions: HCC1954 cells, 144 h, CellTiter-Lumi
Protocol: Assay for In Vitro Inhibition of HCC1954 Cell Proliferation by Compounds of the Present Disclosure
The growth of the cells was evaluated, and the IC50 for the inhibition of cell growth by the compounds was calculated.

[2] = test system: MCF-7 cells (with PI3Kα E545K mutation); test: In vitro inhibition of MCF-7 cell proliferation (CellTiter-Lumi); type: cell-based
Procedure, shortened: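 MCF-7 (PI3Kα E545K) seeded at 2000 cells/well; serially diluted compounds added next day and exposed for 144 h. Cellular ATP read by CellTiter-Lumi luminescence; IC50 for growth inhibition calculated.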

[3] = Homo sapiens, HCC1954, 144 h, class symbols, read-out: Inhibitory activity against HCC1954 cells (IC50), class symbols
[4] = Homo sapiens, MCF7, 144 h, class symbols, read-out: Inhibitory activity against MCF-7 cells (IC50), class symbols
[5] = Homo sapiens, HCC1954, 144 h, numeric values, read-out: Inhibitory activity against HCC1954 cells (IC50)
[6] = Homo sapiens, MCF7, 144 h, numeric values, read-out: Inhibitory activity against MCF-7 cells (IC50)

Row | SMILES | IC50 [1, 3] [nM] | IC50 [2, 4] [nM] | also measured
1 | CC(C)(C=C(C#N)C(=O)Nc1ccc(N2CC(N3CCN(c4ccc5c(c4)-c4nc(N6C(=O)OC[C@H]6C(F)F)cn4CCO5)CC3)C2)cc1)NS(C)(=O)=O [Compound 327] | < 50 | < 50 | 
2 | C=CC(=O)N1CC[C@H](CN2CC3(CCN(c4ccc5c(c4)-c4nc(N6C(=O)OC[C@H]6C(F)F)cn4CCO5)CC3)C2)C1 [Compound 22] |  |  | IC50 [1, 5]: > 1000 nM; IC50 [2, 6]: 143 nM
3 | CC(C)(N)/C=C/C(=O)Nc1ccc(N2CC(N3CCN(c4ccc5c(c4)-c4nc(N6C(=O)OC[C@H]6C(F)F)cn4CCO5)CC3)C2)cc1 [Compound 276] | < 50 | < 50 | 
4 | CC(C)(N)C=C(C#N)C(=O)Nc1ccc(N2CC(N3CCN(c4ccc5c(c4)-c4nc(N6C(=O)OC[C@H]6C(F)F)cn4CCO5)CC3)C2)cc1Cl [Compound 360] | < 50 | < 50 | 
5 | CC(C)(C=C(C#N)C(=O)Nc1ccc(N2CC(N3CCN(c4ccc5c(c4)-c4nc(N6C(=O)OC[C@H]6C(F)F)cn4CCO5)CC3)C2)cc1)NC(=O)OC(C)(C)C [Compound 324A] |  |  | IC50 ([1]; numeric values, read-out: Inhibitory activity against HCC1954 cells (IC50)): 0.1 nM; IC50 ([2]; 144 h, numeric values, read-out: Inhibitory activity against MCF-7 cells (IC50)): 0.1 nM
6 | C=CC(=O)Nc1ccc(N2CC(N3CCN(c4ccc5c(c4)-c4nc(N6C(=O)OC[C@H]6C(F)F)cn4CCO5)CC3)C2)cc1OC [Compound 173] |  |  | IC50 [1, 5]: 4 nM; IC50 [2, 6]: 0.3 nM
7 | CNC(C)(C)C=C(C#N)C(=O)Nc1ccc(N2CC(N3CCN(c4ccc5c(c4)-c4nc(N6C(=O)OC[C@H]6C(F)F)cn4CCO5)CC3)C2)c(Cl)c1 [Compound 350] | < 50 | < 50 | 
8 | CC(C)(C)C=C(C#N)C(=O)Nc1ccc(N2CC(N3CCN(c4ccc5c(c4)-c4nc(N6C(=O)OC[C@H]6C(F)F)cn4CCO5)CC3)C2)nc1 [Compound 241] | < 50 | < 50 | 
9 | C=CC(=O)Nc1ccc(N2CC(N3CCN(c4ccc5c(c4)-c4nc(N6C(=O)OC[C@H]6C(F)(F)F)cn4CCO5)CC3)C2)cc1 [Compound 277] | < 50 | < 50 | 
10 | C=CC(=O)Nc1ccc(N2CC(C3CCN(c4ccc5c(c4)-c4nc(N6C(=O)OC[C@H]6C(F)F)cn4CCO5)CC3)C2)cc1 [Compound 130] |  |  | IC50 [1, 5]: 70 nM; IC50 [2, 6]: 14 nM
11 | CC(C)(N)C=C(C#N)C(=O)Nc1ccc(N2CC(N3CCN(c4ccc5c(c4)-c4nc(N6C(=O)OC[C@H]6C(F)F)cn4CCO5)CC3)C2)cc1 [Compound 137] |  |  | IC50 [1, 5]: 0.6 nM; IC50 [2, 6]: 0.1 nM
12 | CNC(C)(C)C=C(C#N)C(=O)Nc1ccc(N2CC(N3CCN(c4ccc5c(c4)-c4nc(N6C(=O)OC[C@H]6C(F)F)cn4CCO5)CC3)C2)nc1 [Compound 243] | < 50 | < 50 | 
13 | C=CC(=O)Nc1ccc(N2CC(N3CCN(c4ccc5c(c4)-c4nc(N6C(=O)OC[C@H]6C(F)F)cn4CCO5)CC3)C2)c(C#N)c1 [Compound 172] |  |  | IC50 [1, 5]: 3.6 nM; IC50 [2, 6]: 0.2 nM
14 | CC(C)(C=C(C#N)C(=O)Nc1ccc(N2CC(N3CCN(c4ccc5c(c4)-c4nc(N6C(=O)OC[C@H]6C(F)F)cn4CCO5)CC3)C2)nc1)NC1(C)COC1 [Compound 386] | < 50 | < 50 | 
15 | CC(C)=CC(=O)CCC(=O)N1CCN(Cc2ccc3c(c2)-c2nc(N4C(=O)OC[C@H]4C(F)F)cn2CCO3)CC1 [Compound 192] | 50 to 100 | < 50 | 
16 | Cc1nc(-c2cn3c(n2)-c2cc(N4CCN(C5CN(c6ccc(NC(=O)C(C#N)=CC(C)(C)C)cc6Cl)C5)CC4)ccc2OCC3)n(C(C)C)n1 [Compound 369] | < 50 | < 50 | 
17 | C=CC(=O)N1CCC(N2CCC(CN3CCN(c4ccc5c(c4)-c4nc(N6C(=O)OC[C@H]6C(F)F)cn4CCO5)CC3)CC2)CC1 [Compound 8] |  |  | IC50 [1, 5]: > 1000 nM; IC50 [2, 6]: 63 nM

Row | SMILES | IC50 [1, 3] [nM] | IC50 [2, 4] [nM] | also measured
18 | CC(C)(C)C=C(C#N)C(=O)Nc1cnc(N2CC(N3CCN(c4ccc5c(c4)-c4nc(N6C(=O)OC[C@H]6C(F)F)cn4CCO5)CC3)C2)nc1 [Compound 259] | < 50 | < 50 | 
19 | N#CC(=CC1CC1)C(=O)Nc1ccc(N2CC(N3CCN(c4ccc5c(c4)-c4nc(N6C(=O)OC[C@H]6C(F)F)cn4CCO5)CC3)C2)c(F)c1 [Compound 227] | < 50 | < 50 | 
20 | C=CC(=O)Nc1ccc(N2CC(N3CCN(c4ccc5c(c4)-c4nc(N6C(=O)OC[C@H]6C(F)F)cn4CCO5)CC3)C2)c(C)n1 [Compound 151] |  |  | IC50 [1, 5]: 5.6 nM; IC50 [2, 6]: 0.3 nM
21 | CC(C)(C=C(C#N)C(=O)Nc1ccc(N2CC(N3CCN(c4ccc5c(c4)-c4nc(N6C(=O)OC[C@H]6C(F)F)cn4CCO5)CC3)C2)cc1)N1CCN(C2COC2)CC1 [Compound 304] | < 50 | < 50 | 
22 | COC(=O)N1CCN(C(C)(C)C=C(C#N)C(=O)Nc2ccc(N3CC(N4CCN(c5ccc6c(c5)-c5nc(N7C(=O)OC[C@H]7C(F)F)cn5CCO6)CC4)C3)cc2)CC1 [Compound 311] | < 50 | < 50 | 
23 | CN1CCN(C(C)(C)C=C(C#N)C(=O)Nc2ccc(N3CC(N4CCN(c5ccc6c(c5)-c5nc(N7C(=O)OC[C@H]7C(F)F)cn5CCO6)CC4)C3)cc2)CC1 [Compound 307] | < 50 | < 50 | 
24 | Cc1nc(-c2cn3c(n2)-c2cc(N4CCN(C5CN(c6ccc(NC(=O)C(C#N)=CC(C)(C)C)cc6)C5)CC4)ccc2OCC3)n(C(C)C)n1 [Compound 340] | < 50 | < 50 | 
25 | CC(C)(N)C=C(C#N)C(=O)Nc1cnc(N2CC(N3CCN(c4ccc5c(c4)-c4nc(N6C(=O)OC[C@H]6C(F)F)cn4CCO5)CC3)C2)nc1 [Compound 260] | < 50 | < 50 | 
26 | CC=C(C#N)C(=O)Nc1ccc(N2CC(N3CCN(c4ccc5c(c4)-c4nc(N6C(=O)OC[C@H]6C(F)F)cn4CCO5)CC3)C2)cc1 [Compound 187] | < 50 | < 50 | 
27 | CNC(C)(C)C=C(C#N)C(=O)Nc1ccc(N2CC(N3CCN(c4ccc5c(c4)-c4nc(N6C(=O)OC[C@H]6C(F)F)cn4CCO5)CC3)C2)cn1 [Compound 298] | < 50 | < 50 | 
28 | CC(C)(C=C(C#N)C(=O)Nc1ccc(N2CC(N3CCN(c4ccc5c(c4)-c4nc(N6C(=O)OC[C@H]6C(F)F)cn4CCO5)CC3)C2)cn1)NC1COC1 [Compound 290] | < 50 | < 50 | 
29 | Cc1nc(-c2cn3c(n2)-c2cc(N4CCN(C5CN(c6ccc(NC(=O)C(C#N)=CC(C)(C)C)cc6F)C5)CC4)ccc2OCC3)n(C(C)C)n1 [Compound 367] | < 50 | < 50 | 
30 | CCC(C=C(C#N)C(=O)Nc1ccc(N2CC(N3CCN(c4ccc5c(c4)-c4nc(N6C(=O)OC[C@H]6C(F)F)cn4CCO5)CC3)C2)cc1)(CC)NC1COC1 [Compound 387] | < 50 | < 50 | 
31 | C=CC(=O)N1CC(C(=O)N2CC3(CCN(c4ccc5c(c4)-c4nc(N6C(=O)OC[C@H]6C(F)F)cn4CCO5)CC3)C2)C1 [Compound 86] |  |  | IC50 [1, 5]: 126 nM; IC50 [2, 6]: 17 nM
32 | CN(C(=O)OC(C)(C)C)C(C)(C)C=C(C#N)C(=O)Nc1ccc(N2CC(N3CCN(c4ccc5c(c4)-c4nc(N6C(=O)OC[C@H]6C(F)F)cn4CCO5)CC3)C2)cc1 [Compound 335] | < 50 | < 50 | 
33 | C=CC(=O)N1CCc2cc(N3CCN(c4ccc5c(c4)-c4nc(N6C(=O)OC[C@H]6C(F)F)cn4CCO5)CC3)ccc2C1 [Compound 206] | 50 to 100 | < 50 | 
34 | C=CC(=O)Nc1ccc(N2CC(N3CCN(c4cc5c(cc4OC)OCCn4cc(N6C(=O)OC[C@H]6C(F)F)nc4-5)CC3)C2)cc1 [Compound 98] |  |  | IC50 [1, 5]: 59 nM; IC50 [2, 6]: 6.7 nM
